# Experimental data taken from US10485235B2, “Aryloxypyrimidinyl ethers as herbicides” (FMC Corporation, priority 2015, dated 2019).
# Experiments:
# Format in all cases: in vivo
# [1] = tested on: pigweed (Amaranthus retroflexus); assay: Test A postemergence, pigweed; settings: postemergence, 0 to 100 scale, 0 is no effect, 100 is complete control, approximately 10 days
# From the text: (§1) Seeds of plant species selected from barnyardgrass (Echinochloa crus-galli), kochia (Kochia scoparia), ragweed (common ragweed, Ambrosia elatior), ryegrass, Italian (Italian ryegrass, Lolium multiflorum), foxtail, giant (giant foxtail, Setaria faberii), and pigweed (Amaranthus retroflexus), were planted into a blend of loam soil and sand and treated preemergence with a directed soil spray using test chemicals formulated in a non-phytotoxic solvent mixture which included a surfactant.
# (§2) At the same time, plants selected from these weed species and also wheat (Triticum aestivum), corn (Zea mays), blackgrass (Alopecurus myosuroides), and galium (catchweed bedstraw, Galium aparine), were planted in pots containing the same blend of loam soil and sand and treated with postemergence applications of test chemicals formulated in the same manner. Plants ranged in height from 2 to 10 cm and were in the one- to two-leaf stage for the postemergence treatment. Treated plants and untreated controls were maintained in a greenhouse for approximately 10 days, after which time all treated plants were compared to untreated controls and visually evaluated for injury. Plant response ratings, summarized in Table A, are based on a 0 to 100 scale where 0 is no effect and 100 is complete control. A dash (—) response means no test result.
# kochia (Kochia scoparia) [2] = assay: Test A preemergence, kochia; settings: Preemergence, 0 to 100 scale (0 no effect, 100 complete control)
# From the text: as §1, §2
# [3] = tested on: barnyardgrass (Echinochloa crus-galli); assay: Test B flooded paddy test, barnyardgrass; settings: 250 g ai/ha, Flood; visual rating after 13 to 15 days; scale 0 to 100, 0 is no effect, 100 is complete control
# Description: (§3) Plant species in the flooded paddy test selected from rice (Oryza sativa), sedge, umbrella (small-flower umbrella sedge, Cyperus difformis), ducksalad (Heteranthera limosa), and barnyardgrass (Echinochloa crus-galli) were grown to the 2-leaf stage for testing. At time of treatment, test pots were flooded to 3 cm above the soil surface, treated by application of test compounds directly to the paddy water, and then maintained at that water depth for the duration of the test. Treated plants and controls were maintained in a greenhouse for 13 to 15 days, after which time all species were compared to controls and visually evaluated. Plant response ratings, summarized in Table B, are based on a scale of 0 to 100 where 0 is no effect and 100 is complete control. A dash (—) response means no test result.
# [4] = tested on: ragweed (common ragweed, Ambrosia elatior); assay: Test A preemergence, ragweed; settings: Preemergence, 0 to 100 scale (0 no effect, 100 complete control)
# From the text: as §1, §2
# [5] = tested on: sedge, umbrella (small-flower umbrella sedge, Cyperus difformis); assay: Test B flooded paddy test, umbrella sedge; settings: 250 g ai/ha, Flood; visual rating after 13 to 15 days; scale 0 to 100, 0 is no effect, 100 is complete control
# Description: as §3
# [6] = tested on: wheat (Triticum aestivum); assay: Test A postemergence, wheat; settings: postemergence, 0 to 100 scale, 0 is no effect, 100 is complete control, approximately 10 days
# From the text: as §1, §2
# [7] = tested on: ryegrass, Italian (Italian ryegrass, Lolium multiflorum); assay: Test A preemergence, Italian ryegrass; settings: Preemergence, 0 to 100 scale (0 no effect, 100 complete control)
# From the text: as §1, §2
# [8] = tested on: ryegrass, Italian (Italian ryegrass, Lolium multiflorum); assay: Test A postemergence, Italian ryegrass; settings: postemergence, 0 to 100 scale, 0 is no effect, 100 is complete control, approximately 10 days
# From the text: as §1, §2
# [9] = tested on: foxtail, giant (giant foxtail, Setaria faberii); assay: Test A postemergence, giant foxtail; settings: postemergence, 0 to 100 scale, 0 is no effect, 100 is complete control, approximately 10 days
# From the text: as §1, §2
# [10] = tested on: blackgrass (Alopecurus myosuroides); assay: Test A postemergence, blackgrass; settings: postemergence, 0 to 100 scale, 0 is no effect, 100 is complete control, approximately 10 days
# From the text: as §1, §2
# [11] = tested on: foxtail, giant (giant foxtail, Setaria faberii); assay: Test A preemergence, giant foxtail; settings: Preemergence, 0 to 100 scale (0 no effect, 100 complete control)
# From the text: as §1, §2
# corn (Zea mays) = assay: Test A postemergence, corn; settings: postemergence, 0 to 100 scale, 0 is no effect, 100 is complete control, approximately 10 days
# From the text: as §1, §2
# [12] = tested on: barnyardgrass (Echinochloa crus-galli); assay: Test A preemergence, barnyardgrass; settings: Preemergence, 0 to 100 scale (0 no effect, 100 complete control)
# From the text: as §1, §2
# [13] = tested on: galium (catchweed bedstraw, Galium aparine); assay: Test A postemergence, galium; settings: postemergence, 0 to 100 scale, 0 is no effect, 100 is complete control, approximately 10 days
# From the text: as §1, §2
# rice (Oryza sativa) = assay: Test B flooded paddy test, rice; settings: 250 g ai/ha, Flood; visual rating after 13 to 15 days; scale 0 to 100, 0 is no effect, 100 is complete control
# Description: as §3
# [14] = tested on: ducksalad (Heteranthera limosa); assay: Test B flooded paddy test, ducksalad; settings: 250 g ai/ha, Flood; visual rating after 13 to 15 days; scale 0 to 100, 0 is no effect, 100 is complete control
# Description: as §3
# kochia (Kochia scoparia) [15] = assay: Test A postemergence, kochia; settings: postemergence, 0 to 100 scale, 0 is no effect, 100 is complete control, approximately 10 days
# From the text: as §1, §2
# [16] = tested on: pigweed (Amaranthus retroflexus); assay: Test A preemergence, pigweed; settings: Preemergence, 0 to 100 scale (0 no effect, 100 complete control)
# From the text: as §1, §2
# [17] = tested on: ragweed (common ragweed, Ambrosia elatior); assay: Test A postemergence, ragweed; settings: postemergence, 0 to 100 scale, 0 is no effect, 100 is complete control, approximately 10 days
# From the text: as §1, §2
# [18] = tested on: barnyardgrass (Echinochloa crus-galli); assay: Test A postemergence, barnyardgrass; settings: postemergence, 0 to 100 scale, 0 is no effect, 100 is complete control, approximately 10 days
# From the text: as §1, §2
Structure (SMILES),"Plant response rating, Pigweed ([1]; 125 g ai/ha)","Plant response rating, Kochia (kochia (Kochia scoparia) [2]; 125 g ai/ha)","Plant response rating, Barnyardgrass [3]","Plant response rating, Ragweed ([4]; 125 g ai/ha)","Plant response rating, Sedge, Umbrella [5]","Plant response rating, Wheat ([6]; 125 g ai/ha)","Plant response rating, Ryegrass, Italian ([7]; 125 g ai/ha)","Plant response rating, Ryegrass, Italian ([8]; 125 g ai/ha)","Plant response rating, Foxtail, Giant ([9]; 125 g ai/ha)","Plant response rating, Blackgrass ([10]; 125 g ai/ha)","Plant response rating, Foxtail, Giant ([11]; 125 g ai/ha)","Plant response rating, Corn (corn (Zea mays); 125 g ai/ha)","Plant response rating, Barnyardgrass ([12]; 125 g ai/ha)","Plant response rating, Galium ([13]; 125 g ai/ha)","Plant response rating, Rice (rice (Oryza sativa))","Plant response rating, Ducksalad [14]","Plant response rating, Kochia (kochia (Kochia scoparia) [15]; 125 g ai/ha)","Plant response rating, Pigweed ([16]; 125 g ai/ha)","Plant response rating, Ragweed ([17]; 125 g ai/ha)","Plant response rating, Barnyardgrass ([18]; 125 g ai/ha)",also measured
N#Cc1cccc(Oc2ncc(Cl)cn2)c1OCc1ccc(Cl)cc1 [Compound 3],100,80,0,0,80,0,20,20,60,20,90,10,50,60,0,0,70,90,60,50,"Plant response rating, Pigweed ([1]; 500 g ai/ha): 100; Plant response rating, Kochia (kochia (Kochia scoparia) [2]; 500 g ai/ha): 90; Plant response rating, Ragweed ([4]; 500 g ai/ha): 10; Plant response rating, Wheat ([6]; 500 g ai/ha): 10; Plant response rating, Ryegrass, Italian ([7]; 500 g ai/ha): 30; Plant response rating, Ryegrass, Italian ([8]; 500 g ai/ha): 30; Plant response rating, Foxtail, Giant ([9]; 500 g ai/ha): 70; Plant response rating, Blackgrass ([10]; 500 g ai/ha): 50; Plant response rating, Foxtail, Giant ([11]; 500 g ai/ha): 100; Plant response rating, Corn (corn (Zea mays); 500 g ai/ha): 20; Plant response rating, Barnyardgrass ([12]; 500 g ai/ha): 90; Plant response rating, Galium ([13]; 500 g ai/ha): 90; Plant response rating, Kochia (kochia (Kochia scoparia) [15]; 500 g ai/ha): 90; Plant response rating, Pigweed ([16]; 500 g ai/ha): 90; Plant response rating, Ragweed ([17]; 500 g ai/ha): 60; Plant response rating, Barnyardgrass ([18]; 500 g ai/ha): 50"
N#Cc1cccc(Oc2ncc(Cl)cn2)c1OCc1ccc(Cl)cn1 [Compound 6],80,0,0,0,0,0,0,0,10,10,20,20,0,40,0,0,60,90,0,10,"Plant response rating, Pigweed ([1]; 31 g ai/ha): 20; Plant response rating, Kochia (kochia (Kochia scoparia) [2]; 31 g ai/ha): 0; Plant response rating, Ragweed ([4]; 31 g ai/ha): 0; Plant response rating, Wheat ([6]; 31 g ai/ha): 0; Plant response rating, Ryegrass, Italian ([7]; 31 g ai/ha): 0; Plant response rating, Ryegrass, Italian ([8]; 31 g ai/ha): 0; Plant response rating, Foxtail, Giant ([9]; 31 g ai/ha): 0; Plant response rating, Blackgrass ([10]; 31 g ai/ha): 0; Plant response rating, Foxtail, Giant ([11]; 31 g ai/ha): 0; Plant response rating, Corn (corn (Zea mays); 31 g ai/ha): 10; Plant response rating, Barnyardgrass ([12]; 31 g ai/ha): 0; Plant response rating, Galium ([13]; 31 g ai/ha): 30; Plant response rating, Kochia (kochia (Kochia scoparia) [15]; 31 g ai/ha): 10; Plant response rating, Pigweed ([16]; 31 g ai/ha): 10; Plant response rating, Ragweed ([17]; 31 g ai/ha): 0; Plant response rating, Barnyardgrass ([18]; 31 g ai/ha): 0"
Fc1cccc(Oc2ncc(Cl)cn2)c1OC/C=C/Cl [Compound 9],60,40,0,0,80,0,0,0,20,10,100,10,40,60,0,80,70,80,0,20,"Plant response rating, Pigweed ([1]; 500 g ai/ha): 100; Plant response rating, Kochia (kochia (Kochia scoparia) [2]; 500 g ai/ha): 100; Plant response rating, Ragweed ([4]; 500 g ai/ha): 0; Plant response rating, Wheat ([6]; 500 g ai/ha): 10; Plant response rating, Ryegrass, Italian ([7]; 500 g ai/ha): 20; Plant response rating, Ryegrass, Italian ([8]; 500 g ai/ha): 10; Plant response rating, Foxtail, Giant ([9]; 500 g ai/ha): 80; Plant response rating, Blackgrass ([10]; 500 g ai/ha): 70; Plant response rating, Foxtail, Giant ([11]; 500 g ai/ha): 100; Plant response rating, Corn (corn (Zea mays); 500 g ai/ha): 30; Plant response rating, Barnyardgrass ([12]; 500 g ai/ha): 100; Plant response rating, Galium ([13]; 500 g ai/ha): 90; Plant response rating, Kochia (kochia (Kochia scoparia) [15]; 500 g ai/ha): 100; Plant response rating, Pigweed ([16]; 500 g ai/ha): 100; Plant response rating, Ragweed ([17]; 500 g ai/ha): 0; Plant response rating, Barnyardgrass ([18]; 500 g ai/ha): 80"
